#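 All cell lines were grown in 96-well plates and treated with compound for 48 hours. Abbreviation: GI50, concentration required for 50% inhibition of growth. TGI: total growth inhibition.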
# Legend:
# Test in all cases: NCI anticancer screen, dose series, 48 h
# HCC-2998 colon = test system: HCC-2998 colon
# SF-295 CNS = test system: SF-295 CNS
# UACC-62 melanoma = test system: UACC-62 melanoma
# CAKI-1 renal = test system: CAKI-1 renal
# K-562 leukemia = test system: K-562 leukemia
# SK-MEL-28 melanoma = test system: SK-MEL-28 melanoma
# OVCAR-4 ovarian = test system: OVCAR-4 ovarian
# RPMI-8226 leukemia = test system: RPMI-8226 leukemia
# IGROV1 ovarian = test system: IGROV1 ovarian
# BT-549 breast = test system: BT-549 breast
# ACHN renal = test system: ACHN renal
# T-47D breast = test system: T-47D breast
# SF-539 CNS = test system: SF-539 CNS
# SK-MEL-2 melanoma = test system: SK-MEL-2 melanoma
# KM12 colon = test system: KM12 colon
# U251 CNS = test system: U251 CNS
# OVCAR-8 ovarian = test system: OVCAR-8 ovarian
# SNB-75 CNS = test system: SNB-75 CNS
# DU-145 prostate = test system: DU-145 prostate
# MDA-MB-231 breast = test system: MDA-MB-231 breast
# HS 578T breast = test system: HS 578T breast
# 786-0 renal = test system: 786-0 renal
# SW-620 colon = test system: SW-620 colon
# OVCAR-5 ovarian = test system: OVCAR-5 ovarian
# HOP-62 NSCLC = test system: HOP-62 NSCLC
# NCI-H460 lung = test system: NCI-H460 lung
# M14 melanoma = test system: M14 melanoma
# NCI/ADR-RES ovarian = test system: NCI/ADR-RES ovarian
# NCI-H23 lung = test system: NCI-H23 lung
# HL-60(TB) leukemia = test system: HL-60(TB) leukemia
# TK-10 renal = test system: TK-10 renal
# A498 renal = test system: A498 renal
# MALME-3M melanoma = test system: MALME-3M melanoma
# HOP-92 NSCLC = test system: HOP-92 NSCLC
# SN12C renal = test system: SN12C renal
# MCF7 breast = test system: MCF7 breast
# RXF 393 renal = test system: RXF 393 renal
# SNB-19 CNS = test system: SNB-19 CNS
# LOX IMVI melanoma = test system: LOX IMVI melanoma
# UACC-257 melanoma = test system: UACC-257 melanoma
# A549 NSCLC = test system: A549 NSCLC
# HCT-116 colon = test system: HCT-116 colon
# OVCAR-3 ovarian = test system: OVCAR-3 ovarian
# NCI-H522 lung = test system: NCI-H522 lung
# HT29 colon = test system: HT29 colon
# SK-OV-3 ovarian = test system: SK-OV-3 ovarian
# EKVX NSCLC = test system: EKVX NSCLC
# NCI-H226 lung = test system: NCI-H226 lung
# CCRF-CEM leukemia = test system: CCRF-CEM leukemia
# MDA-MB-435 = test system: MDA-MB-435
# UO-31 renal = test system: UO-31 renal
# SK-MEL-5 melanoma = test system: SK-MEL-5 melanoma
# HCT-15 colon = test system: HCT-15 colon
# PC-3 prostate = test system: PC-3 prostate
# COLO 205 colon = test system: COLO 205 colon
# MOLT-4 leukemia = test system: MOLT-4 leukemia
# SF-268 CNS = test system: SF-268 CNS
smiles,measurement,setting,value
Nc1nc(N)c2cc(S(=O)(=O)c3ccccc3)ccc2n1,GI50,HCC-2998 colon,2380 nM
same,TGI,HCC-2998 colon,32.2 µM
same,GI50,SF-295 CNS,792 nM
same,TGI,SF-295 CNS,51.9 µM
same,GI50,UACC-62 melanoma,511 nM
same,TGI,UACC-62 melanoma,> 100 µM
same,GI50,CAKI-1 renal,3.45 µM
same,TGI,CAKI-1 renal,> 100 µM
same,GI50,K-562 leukemia,339 nM
same,TGI,K-562 leukemia,> 100 µM
same,GI50,SK-MEL-28 melanoma,10.6 µM
same,TGI,SK-MEL-28 melanoma,> 100 µM
same,GI50,OVCAR-4 ovarian,7.2 µM
same,TGI,OVCAR-4 ovarian,> 100 µM
same,GI50,RPMI-8226 leukemia,6.04 µM
same,TGI,RPMI-8226 leukemia,> 100 µM
same,GI50,IGROV1 ovarian,4.59 µM
same,TGI,IGROV1 ovarian,> 100 µM
same,GI50,BT-549 breast,6.59 µM
same,TGI,BT-549 breast,92.3 µM
same,GI50,ACHN renal,3.27 µM
same,TGI,ACHN renal,> 100 µM
same,GI50,T-47D breast,9.57 µM
same,TGI,T-47D breast,> 100 µM
same,GI50,SF-539 CNS,2050 nM
same,TGI,SF-539 CNS,> 100 µM
same,GI50,SK-MEL-2 melanoma,25.3 µM
same,TGI,SK-MEL-2 melanoma,> 100 µM
same,GI50,KM12 colon,4.23 µM
same,TGI,KM12 colon,> 100 µM
same,GI50,U251 CNS,1240 nM
same,TGI,U251 CNS,> 100 µM
same,GI50,OVCAR-8 ovarian,1310 nM
same,TGI,OVCAR-8 ovarian,> 100 µM
same,GI50,SNB-75 CNS,8.86 µM
same,TGI,SNB-75 CNS,> 100 µM
same,GI50,DU-145 prostate,5.74 µM
same,TGI,DU-145 prostate,> 100 µM
same,GI50,MDA-MB-231 breast,8.07 µM
same,TGI,MDA-MB-231 breast,> 100 µM
same,GI50,HS 578T breast,6.93 µM
same,TGI,HS 578T breast,> 100 µM
same,GI50,786-0 renal,1010 nM
same,TGI,786-0 renal,> 100 µM
same,GI50,SW-620 colon,512 nM
same,TGI,SW-620 colon,> 100 µM
same,GI50,OVCAR-5 ovarian,2210 nM
same,TGI,OVCAR-5 ovarian,> 100 µM
same,GI50,HOP-62 NSCLC,4.14 µM
same,TGI,HOP-62 NSCLC,> 100 µM
same,GI50,NCI-H460 lung,417 nM
same,TGI,NCI-H460 lung,> 100 µM
same,GI50,M14 melanoma,506 nM
same,TGI,M14 melanoma,> 100 µM
same,GI50,NCI/ADR-RES ovarian,3.52 µM
same,TGI,NCI/ADR-RES ovarian,> 100 µM
same,GI50,NCI-H23 lung,3.03 µM
same,TGI,NCI-H23 lung,> 100 µM
same,GI50,HL-60(TB) leukemia,1640 nM
same,TGI,HL-60(TB) leukemia,31.5 µM
same,GI50,TK-10 renal,4.36 µM
same,TGI,TK-10 renal,> 100 µM
same,GI50,A498 renal,8.33 µM
same,TGI,A498 renal,> 100 µM
same,GI50,MALME-3M melanoma,4.97 µM
same,TGI,MALME-3M melanoma,> 100 µM
same,GI50,HOP-92 NSCLC,4.64 µM
same,TGI,HOP-92 NSCLC,72.8 µM
same,GI50,SN12C renal,3.21 µM
same,TGI,SN12C renal,> 100 µM
same,GI50,MCF7 breast,2860 nM
same,TGI,MCF7 breast,> 100 µM
same,GI50,RXF 393 renal,72.5 µM
same,TGI,RXF 393 renal,> 100 µM
same,GI50,SNB-19 CNS,6.84 µM
same,TGI,SNB-19 CNS,> 100 µM
same,GI50,LOX IMVI melanoma,516 nM
same,TGI,LOX IMVI melanoma,> 100 µM
same,GI50,UACC-257 melanoma,14.9 µM
same,TGI,UACC-257 melanoma,> 100 µM
same,GI50,A549 NSCLC,622 nM
same,TGI,A549 NSCLC,> 100 µM
same,GI50,HCT-116 colon,501 nM
same,TGI,HCT-116 colon,> 100 µM
same,GI50,OVCAR-3 ovarian,5.68 µM
same,TGI,OVCAR-3 ovarian,> 100 µM
same,GI50,NCI-H522 lung,4.56 µM
same,TGI,NCI-H522 lung,> 100 µM
same,GI50,HT29 colon,634 nM
same,TGI,HT29 colon,> 100 µM
same,GI50,SK-OV-3 ovarian,5.41 µM
same,TGI,SK-OV-3 ovarian,> 100 µM
same,GI50,EKVX NSCLC,7.13 µM
same,TGI,EKVX NSCLC,> 100 µM
same,GI50,NCI-H226 lung,5.87 µM
same,TGI,NCI-H226 lung,> 100 µM
same,GI50,CCRF-CEM leukemia,2930 nM
same,TGI,CCRF-CEM leukemia,> 100 µM
same,GI50,MDA-MB-435,487 nM
same,TGI,MDA-MB-435,> 100 µM
same,GI50,UO-31 renal,13.3 µM
same,TGI,UO-31 renal,> 100 µM
same,GI50,SK-MEL-5 melanoma,1140 nM
same,TGI,SK-MEL-5 melanoma,> 100 µM
same,GI50,HCT-15 colon,1750 nM
same,TGI,HCT-15 colon,> 100 µM
same,GI50,PC-3 prostate,838 nM
same,TGI,PC-3 prostate,> 100 µM
same,GI50,COLO 205 colon,6.99 µM
same,TGI,COLO 205 colon,> 100 µM
same,GI50,MOLT-4 leukemia,4.31 µM
same,TGI,MOLT-4 leukemia,> 100 µM
same,GI50,SF-268 CNS,3.13 µM
same,TGI,SF-268 CNS,> 100 µM

# From PubChem BioAssay (NCI)
